# Results taken from PMC5548886 (Cancer Medicine, 2017).
# Assays:
# Assay in all cases: IHC of tumor biopsies, H-score change on-treatment vs pretreatment
# Format in all cases: in vivo, human
# p27 = system: p27
# Method: (§1) Pharmacodynamic markers were examined using peripheral blood samples, tumor and nevi biopsies (when available) and tumor imaging. BRAF mutation status was determined by Sanger sequencing. Pharmacodynamic markers analyzed, in available tumor/nevus samples obtained before treatment or archival tissue and during treatment on cycle 1, day 8 or day 15, including cytoplasmic p‐MEK, p‐ERK, BIM, c‐KIT, p‐AKT473, pS6 and PTEN, and nuclear p‐ERK, Ki‐67, PARP, cyclin D1, MITF, p27, and p53. Biomarker expression was determined by calculating the percentage of change in the H‐score (14) between on‐treatment and fresh/archival pretreatment specimens. Blood levels of VEGFR‐2 and were assessed before and at multiple time points while on treatment using enzyme‐linked immunosorbent assay (ELISA). […] Changes in standard uptake value (SUV) were determined by a blinded, independent central imaging review panel. Complete metabolic response (CMR) was complete resolution of tumor FDG‐PET uptake so SUV is the same as background. Partial metabolic response (PMR) decrease in sum of the tumor SUV of ≥25% from the baseline scan. Progressive metabolic disease (PMD) was defined as an increase in tumor SUV of ≥25% from the baseline scan, or the appearance of new FDG‐PET uptake in metastatic lesions. Stable metabolic disease (SMD) was defined as a change in tumor SUV between the PMR and PMD criteria.
# MITF = system: MITF
# Method: as §1
# PTEN = system: PTEN
# Method: as §1
# p-AKT473 = system: p-AKT473
# Method: as §1
# cytoplasmic p-ERK = system: cytoplasmic p-ERK
# Method: as §1
smiles,measurement,setting,value
Cn1c(Nc2ccc(C(F)(F)F)cc2)nc2cc(Oc3ccnc(-c4ncc(C(F)(F)F)[nH]4)c3)ccc21 [RAF265],"P27 % change vs pretreatment, Mean (SD)","p27; All patients, n 20",+86 (251.9) %
same,"P27 % change vs pretreatment, Median","p27; All patients, n 20",+5%
same,"P27 % change vs pretreatment, Mean (SD)","p27; DL 5, n 2",-40 (56.6) %
same,"P27 % change vs pretreatment, Median","p27; DL 5, n 2",-40%
same,"p27 abundance, median increase",p27; DL 6,30.4%
same,"P27 % change vs pretreatment, Mean (SD)","p27; DL 6, n 5",+156.4 (312.2) %
same,"P27 % change vs pretreatment, Median","p27; DL 6, n 5",+30.4%
same,"p27 abundance, median increase",p27; DL 7/7.1,72.2%
same,"P27 % change vs pretreatment, Mean (SD)","p27; DLs 1 - 4, n 9",-2.2 (44) %
same,"P27 % change vs pretreatment, Median","p27; DLs 1 - 4, n 9",0%
same,"P27 % change vs pretreatment, Mean (SD)","p27; DLs 7 and 7.1, n 4",+261.1 (427.3) %
same,"P27 % change vs pretreatment, Median","p27; DLs 7 and 7.1, n 4",+72.2%
same,"MITF % change vs pretreatment, Mean(SD)","MITF; All patients, n 21",+197.3(856.9) %
same,"MITF % change vs pretreatment, Median","MITF; All patients, n 21",-13.2%
same,"MITF % change vs pretreatment, Mean(SD)","MITF; DL 5, n 2",+11.8 (23.7) %
same,"MITF % change vs pretreatment, Median","MITF; DL 5, n 2",+11.8%
same,"MITF % change vs pretreatment, Mean(SD)","MITF; DL 6, n 6",+20.1 (111.3) %
same,"MITF % change vs pretreatment, Median","MITF; DL 6, n 6",-6.60%
same,"MITF % change vs pretreatment, Mean(SD)","MITF; DLs 1 - 4, n 9",+400.6(1312.5) %
same,"MITF % change vs pretreatment, Median","MITF; DLs 1 - 4, n 9",-27.3%
same,"MITF % change vs pretreatment, Mean(SD)","MITF; DLs 7 and 7.1, n 4",+98.6 (239.7) %
same,"MITF % change vs pretreatment, Median","MITF; DLs 7 and 7.1, n 4",0%
same,"PTEN % change vs pretreatment, Mean (SD)","PTEN; All patients, n 18",-3.16 (32.4) %
same,"PTEN % change vs pretreatment, Median","PTEN; All patients, n 18",0%
same,"PTEN % change vs pretreatment, Mean (SD)","PTEN; DL 5, n 2",0%
same,"PTEN % change vs pretreatment, Median","PTEN; DL 5, n 2",0%
same,"PTEN % change vs pretreatment, Mean (SD)","PTEN; DL 6, n 5",-9.4 (27) %
same,"PTEN % change vs pretreatment, Median","PTEN; DL 6, n 5",0%
same,"PTEN % change vs pretreatment, Mean (SD)","PTEN; DLs 1 - 4, n 8",-5 (44.1) %
same,"PTEN % change vs pretreatment, Median","PTEN; DLs 1 - 4, n 8",-7.4%
same,"PTEN % change vs pretreatment, Mean (SD)","PTEN; DLs 7 and 7.1, n 3",10 (17.3) %
same,"PTEN % change vs pretreatment, Median","PTEN; DLs 7 and 7.1, n 3",0%
same,"PAKT473 % change vs pretreatment, Mean (SD)","p-AKT473; All patients, n 19",+1.2 (105.4) %
same,"PAKT473 % change vs pretreatment, Median","p-AKT473; All patients, n 19",-4.6%
same,"PAKT473 % change vs pretreatment, Mean (SD)","p-AKT473; DL 5, n 1",-4.6%
same,"PAKT473 % change vs pretreatment, Median","p-AKT473; DL 5, n 1",-4.6%
same,"p-AKT, median decrease",p-AKT473; DL 6,46.7%
same,"PAKT473 % change vs pretreatment, Mean (SD)","p-AKT473; DL 6, n 4",-48.4(55.9) %
same,"PAKT473 % change vs pretreatment, Median","p-AKT473; DL 6, n 4",-46.7%
same,"PAKT473 % change vs pretreatment, Mean (SD)","p-AKT473; DLs 1 - 4, n 11",+20.1(132.9) %
same,"PAKT473 % change vs pretreatment, Median","p-AKT473; DLs 1 - 4, n 11",-20%
same,"PAKT473 % change vs pretreatment, Mean (SD)","p-AKT473; DLs 7 and 7.1, n 3",0%
same,"PAKT473 % change vs pretreatment, Median","p-AKT473; DLs 7 and 7.1, n 3",0%
same,"p-ERK IHC staining, on-treatment versus pretreatment",cytoplasmic p-ERK; 23 patients,dose‐dependent p‐ERK inhibition
same,"cytoplasmic pERK % change vs pretreatment, Mean (SD)","cytoplasmic p-ERK; All patients, n 13",-3.6 (48.6) %
same,"cytoplasmic pERK % change vs pretreatment, Median","cytoplasmic p-ERK; All patients, n 13",-11.8%
same,"cytoplasmic pERK % change vs pretreatment, Mean (SD)","cytoplasmic p-ERK; DL 5, n 2",+27.1 (56) %
same,"cytoplasmic pERK % change vs pretreatment, Median","cytoplasmic p-ERK; DL 5, n 2",+27.1%
same,"cytoplasmic pERK % change vs pretreatment, Mean (SD)","cytoplasmic p-ERK; DL 6, n 5",-27.0 (40.9) %
same,"cytoplasmic pERK % change vs pretreatment, Median","cytoplasmic p-ERK; DL 6, n 5",-50.00%
same,"cytoplasmic pERK % change vs pretreatment, Mean (SD)","cytoplasmic p-ERK; DLs 1 - 4, n 2",+52.3 (80) %
same,"cytoplasmic pERK % change vs pretreatment, Median","cytoplasmic p-ERK; DLs 1 - 4, n 2",+52.3%
same,"cytoplasmic pERK % change vs pretreatment, Mean (SD)","cytoplasmic p-ERK; DLs 7 and 7.1, n 4",-17.8 (11.5) %
same,"cytoplasmic pERK % change vs pretreatment, Median","cytoplasmic p-ERK; DLs 7 and 7.1, n 4",-13.5%
same,p-ERK expression change,cytoplasmic p-ERK; patients treated at DL1-5,increase in p‐ERK expression
same,p-ERK abundance change,cytoplasmic p-ERK; patients treated at DL 6-7.1,moderately decreased p‐ERK abundance
